Measurements as given in a melting point compilation (Tetko et al.; mined from patent text by program, amines drawn as free bases though some values may be those of a salt).

SMILES | melting point [°C]
CC(C)(C)OC(=O)c1ncn2c1[C@@H]1CCCN1C(=O)c1cc(N)ccc1-2 | 223 to 224
CCOC(=O)COc1cccc(-c2nc3ncccc3[nH]2)c1 | 158
CCOC(=O)c1cc(C)sc1NN=c1c(C(=O)OCC)c[nH]c2ccccc12 | 173 to 174
CCOC(Cc1ccc(OCc2nc(C3CC3)oc2C)c2ccsc12)C(=O)O (configuration not stated) | 153 to 154
CC(Oc1cc(O)ccc1[N+](=O)[O-])C(=O)O (configuration not stated) | 190 to 195
COc1cc(C)nn1-c1ccc(Br)cc1 | 67 to 68
O=c1cc2c(nn1-c1ccc(Cl)cc1)-c1ncccc1CC2 | 174 to 176
Fc1cc2c(Cl)ncnc2cn1 | 75 to 76
COC(=O)N(CC(=O)O)C(=O)c1c(Br)ccc2c(C(F)(F)F)c(OC)ccc12 | 164 to 166
COc1cc(C(C)C)c2c(c1)S(=O)(=O)N(COC(=O)c1c(C)ccnc1C)C2=O | 132 to 134
Nc1nc2ccccc2n1S(=O)(=O)C=Cc1ccccc1 | 191
Cc1ccc(-c2cc(C#N)c[nH]2)cc1 | 169 to 171
CC(C)(SN=O)C1COC(=O)N1 (configuration not stated) | 65
COc1ccc2c(c1)C(N1CCN(C)CC1)c1ccccc1C=C2 (configuration not stated) | 118
CC1CCNC1=C[N+](=O)[O-] (configuration not stated) | 47 to 47.5
COc1cccc2c1nc(C(F)F)n2-c1nc(N2CCOCC2)nc(N2CCN(S(=O)(=O)C(F)(F)F)CC2)n1 | 272 to 273
NCC1Cc2cc(C(F)(F)F)cc(-c3ccsc3)c2O1 (configuration not stated) | > 250
COc1ccc(-n2nc(C)cc2NC2=NCCN2C(C)=O)cc1 | 129 to 131
CC(=O)c1ccc(OCCCCOc2ccccc2)cc1 | 104 to 106
CCCC(C(=O)OCC)n1cnc(C(N)=O)c1 (configuration not stated) | 95
CC(c1ccc2[nH]c(-c3cccnc3)nc2c1)n1ccnc1 (configuration not stated) | 254
CCCCc1oc2ccc(C(N)=O)cc2c1C(=O)c1ccc(OCCCN(CCCC)CCCC)cc1 | 90 to 92
C#Cc1cc(Nc2ncnc3cnc(N)cc23)ccc1F | 218 to 222
COC(=O)c1nc2ccc(C=O)cc2cc1C | 118 to 121
CC(C)(C)c1cc(CN2CCN(c3ccc([N+](=O)[O-])cc3)CC2)cc(C(C)(C)C)c1O | 178

SMILES | melting point [°C]
CC(Cl)COC(C)c1ccc(O)cc1 (single isomer, unassigned; (+)) | 50 to 51
CNC(=O)N1CCC(Oc2c(F)c(F)c(F)c(F)c2F)(c2ccccc2)CC1 | 87 to 89
Cc1c(C(=O)Nc2ccc(N3CCC(N4CCOCC4)CC3)c(C#N)c2)cnn1-c1ccc(Cl)c(Cl)c1 | 242
Oc1ccc(C2OCC3(CO2)COC(c2ccc(O)cc2)OC3)cc1 (configuration not stated) | 251 to 253
O=[N+]([O-])c1ccc(-c2nc3ccc(F)cc3s2)cc1 | 201 to 202
COC(=O)C=CCc1cc(C=CC(=O)OC(C)(C)C)cc(Cc2cccnc2)c1 | 91 to 93
O=C(Cl)N1CCC(Oc2cccc3c2CCC3)C1 (configuration not stated) | 128 to 129
Cc1ccc(C(=O)Nc2c(NC(=O)CN3CCN(c4ccccc4)CC3)ccc3c2C(=O)c2ccccc2C3=O)cc1 | 270 to 271
CC(C)OC(=O)c1cc([N+](=O)[O-])c(O)c([N+](=O)[O-])c1 | 108 to 110
COCCOc1ccc(CCCOC(=O)NS(=O)(=O)NCCc2ccccc2)c(Oc2ncc(C(F)(F)F)cc2Cl)c1 | 110 to 113
CSC1Oc2ccc(Cl)cc2C1=O (configuration not stated) | 76 to 78
COc1ccc(NS(=O)(=O)CC(=O)O)cc1[N+](=O)[O-] | 154 to 156
Cc1nc(C)n2c1CN=C(c1ccccc1F)c1cc(Cl)ccc1-2 | 178 to 180
Cc1nn(-c2ccc(Cl)cc2)cc1C(=O)N(CC(=O)O)c1ccc(OCC(C)(C)C)c(C#N)c1 | 186 to 189
Cc1ccc(S(=O)(=O)NCCCCOc2ccc([N+](=O)[O-])cc2)cc1 | 87 to 88
N#Cc1ccc(OCc2cnsc2)cc1OC(C(=O)O)c1ccccc1Cl (racemic) | 194 to 197
CN1C(=O)N(C)S(=O)(=O)N(c2ccc(Cl)cc2)C1=O | 82 to 84
O=C1CCN2CCc3ccccc3C2(c2ccc(F)cc2)C1 (configuration not stated) | 128 to 130
CCCOc1cc(F)cc2c1c(CCN(C)C)cn2CC | 68.9 to 70.1
O=c1ccc(-c2c(-c3ccccc3)nn3ccccc23)nn1C1CCCCC1=Cc1nnn[nH]1 (configuration not stated) | 129 to 131
COc1cccc(Cc2cnc(N[N+](=O)[O-])[nH]c2=O)c1 | 178 to 179
O=C(O)CCCOc1cc(Cn2cc(C3c4ccccc4C=Cc4ccccc43)c(=S)[nH]c2=O)cc(OCC(=O)O)c1 | 104 to 109
O=S1(=O)Cc2ccc(F)cc2C(c2ccc(F)cc2)=NN1 | 196 to 200
CC(C)(C)OC(=O)C1CCCN(C(=O)OCc2ccccc2)N1C(=O)C(Br)CCBr (configuration not stated) | 81 to 82

Second part, the molecule after the results:

melting point [°C] | SMILES
129 | CC1CCN(c2cc(-c3ncccn3)nc(Cl)c2-c2c(F)cccc2Cl)CC1
65 | Cc1c(N)cccc1C(=O)c1ccc(Cl)cc1
150 | CSC(=NC(=O)CS(C)(=O)=O)N(C)N=Cc1ccccc1
124 to 126 | O=C(O)Cn1cc(C2(O)CCCC2)nn1
76.5 to 77.5 | O=Cc1ccc(-c2cc(C(F)(F)F)n(Cc3ccccc3)n2)o1
176 to 177 | Cc1c(NC(=O)c2ccc(OCc3ccccc3)cc2F)ccc2cc(CN3CCCC3)cnc12
142 to 145 | CC(c1ccc(C(=O)N(C)C2CCCCC2)cc1)n1cnc2ccccc21 (configuration not stated)
246 to 248 | O=C1CCCc2cc(=O)[nH]cc21
222 to 223 | COC(=O)c1cc(O)nn1Cc1ccc(Cl)cc1Cl
104 to 106 | Clc1cc(-c2csc(Cc3ccccc3)n2)ccn1
127 to 129 | CN(C)C(=O)Cc1cc(Br)ccc1I
55 | COc1cc(C=O)cc(OC)c1C(C)(C)O
114 to 115 | COc1nc(C)nc(OC)c1[N+](=O)[O-]
69 to 70 | N#Cc1ccc(COc2cccc(F)c2)cc1
234 to 235 | Cc1nc2c(N)nc3ccccc3c2n1CCCNC(=O)C1CCCCC1
> 300 | Cc1nc(-c2cc(C(N)=O)c(=O)[nH]c2C)cs1
87 to 88 | O=C1NC(Cc2cccc(OC(F)(F)C(F)F)c2)C(c2ccc(Oc3ccccc3)cn2)O1 (configuration not stated)
78 to 79 | CC(C)CCn1cn[nH]c1=O
192 to 196 | O=C(O)C1(Cn2cnnn2)CCCC1
208 to 210 | NS(=O)(=O)c1nc2ccc(OC(=O)c3ccccc3)cc2s1
165 to 166 | CCCCC#CC#CCOc1ccc(C(=O)O)cc1
226 to 227 | Cc1nc(N2C[C@@H](C)C[C@H](C)C2)c2nc(-c3ccccc3)cc-2[nH]1 (relative stereo)
90 | COC(=O)C=Cc1cc(Oc2c(Cl)cc(C(F)(F)F)cc2Cl)ccc1[N+](=O)[O-]
65 to 68 | O=C(NN1CCCCC1)c1cc(Oc2c(F)cc(C(F)(F)F)cc2Cl)ccc1[N+](=O)[O-]
121 to 124 | COc1cc(OC)cc(-c2nsnc(Cl)c2=O)c1
168 to 171 | CC(=O)C(Cl)=NNc1ccc(Cl)cc1
254 to 256 | O=C(CCc1cnn(-c2ccccc2)c1-c1ccccc1)Nc1ccc(C(=O)O)cc1

melting point [°C] | SMILES
64 to 65 | CCCCOC(=O)CN(C(=O)C(F)(F)F)C(NC(C)C)P(=O)(O)OSCC (configuration not stated)
105 to 107 | CCCCc1nc2ccccn2c(=O)c1-c1ccc(Cl)cc1C
263 to 265 | COc1cc2c(cc1S(=O)(=O)c1ccc(C)cc1)[C@@H](N1CCCC1=O)[C@H](O)C(C)(C)O2 (relative stereo)
212 to 214 | COc1ccc(C(=N)c2ccc(Cl)cc2)c(O)c1
153 to 156 | COC(=O)C(Cc1ccccc1)N1CC(N2C(=O)c3ccccc3C2=O)C1=O (configuration not stated)
204 to 206 | O=C(Nc1nccs1)c1ccc(-c2ccc3nnn(Cc4ccc5ncccc5c4)c3n2)cc1F
189 to 190 | O=C(NC(Cc1ccc(OCc2ccc(F)cc2)cc1)C(=O)O)c1cc2cc(-c3ccc(Cl)cc3)ccc2s1 (configuration not stated)
160 to 162 | CCC1CCC(=O)C=C1c1ccc(OC(CC)C(=O)O)c(Cl)c1Cl (configuration not stated)
170 to 175 | Nc1ccc(Cl)cc1C(=O)c1ccc(O)cc1
220 to 225 | COc1ccccc1N1CCN([C@H]2CC[C@H](c3ccc(-c4ccccc4)cc3)CC2)CC1
98 to 101 | C=CCONC(=O)c1nc(-c2ccc(Cl)c(OC)c2F)nc(N)c1C=C
192 to 193 | CCOC(=O)Nc1c(C)cc(Cc2cnc(N)nc2N)cc1C
66 to 68 | O=C(O)COc1ccc(OCCC(c2ccccc2)(c2ccccc2)c2ccccc2)cc1
76 to 78 | Cc1cc2c(nc1OCCCCN1CCN(c3cccc4ccccc34)CC1)NC(=O)CC2
92 to 94 | CCOC(=O)C(=O)Cc1cc(Cl)c(Cl)cc1[N+](=O)[O-]
154 to 156 | CC[C@@H](c1ccccc1)N(Cc1ccc(C(=O)O)cc1)S(=O)(=O)c1ccc(Cl)cc1
37 to 38 | COC=C(C(=O)OC)c1ccccc1
149 to 151 | O=C(Nc1ccc2c(c1)NCCC2)c1cc2cc(F)ccc2n1Cc1cccc(F)c1
56 | COc1cc(N)c([N+](=O)[O-])cc1C(F)(F)F
41 to 43 | CCCCCCOc1c(Br)ccc2c(OCCCCCC)c(Br)ccc12
75 | COC(=O)CSCCn1cc(C)c(=O)[nH]c1=O
42 to 43 | CCCCCCCCCCCCCCOc1ccc(C(=O)OC)cc1Cl
112 to 113 | CCOC(=O)CCc1c(O)ccc2ccc(OCC(=O)OCC)cc12
295 | CCOC(=O)C(=O)Nc1cc(C#N)ccc1O
113 to 119 | CNC(=O)C(NC(=O)C(CC(C)C)C(S)CC(=O)OC)C(C)OCc1ccccc1 (configuration not stated)
> 300 | Cc1ccc(-c2c(Cl)nc(-c3cccs3)nc2NS(=O)(=O)c2ccc(C(C)(C)C)cc2)cc1
